According to the NIST ThermoML archive (doi:10.1021/acs.jced.6b00951):

Conditions: 100.3 kPa, Liquid; for viscosity: Capillary tube (Ostwald / Ubbelohde) method; for mass density: Vibrating tube method

O [water]
Conditions	mass density [kg/m3]	viscosity [mPa·s]
288.15 K	–	1.139
293.15 K	–	1.002
298.15 K	–	0.8897
303.15 K	–	0.7988
308.15 K	–	0.7184
313.15 K	–	0.6525
318.15 K	–	0.596
323.15 K	988.04	0.547
328.15 K	985.69	0.5043
